In the first assay the target is T1, recombinant human baculovirus-expressed GST-tagged FASN (Homo sapiens, UniProt P49327).
T1 construct: GST
T1 sequence (P49327 whole entry): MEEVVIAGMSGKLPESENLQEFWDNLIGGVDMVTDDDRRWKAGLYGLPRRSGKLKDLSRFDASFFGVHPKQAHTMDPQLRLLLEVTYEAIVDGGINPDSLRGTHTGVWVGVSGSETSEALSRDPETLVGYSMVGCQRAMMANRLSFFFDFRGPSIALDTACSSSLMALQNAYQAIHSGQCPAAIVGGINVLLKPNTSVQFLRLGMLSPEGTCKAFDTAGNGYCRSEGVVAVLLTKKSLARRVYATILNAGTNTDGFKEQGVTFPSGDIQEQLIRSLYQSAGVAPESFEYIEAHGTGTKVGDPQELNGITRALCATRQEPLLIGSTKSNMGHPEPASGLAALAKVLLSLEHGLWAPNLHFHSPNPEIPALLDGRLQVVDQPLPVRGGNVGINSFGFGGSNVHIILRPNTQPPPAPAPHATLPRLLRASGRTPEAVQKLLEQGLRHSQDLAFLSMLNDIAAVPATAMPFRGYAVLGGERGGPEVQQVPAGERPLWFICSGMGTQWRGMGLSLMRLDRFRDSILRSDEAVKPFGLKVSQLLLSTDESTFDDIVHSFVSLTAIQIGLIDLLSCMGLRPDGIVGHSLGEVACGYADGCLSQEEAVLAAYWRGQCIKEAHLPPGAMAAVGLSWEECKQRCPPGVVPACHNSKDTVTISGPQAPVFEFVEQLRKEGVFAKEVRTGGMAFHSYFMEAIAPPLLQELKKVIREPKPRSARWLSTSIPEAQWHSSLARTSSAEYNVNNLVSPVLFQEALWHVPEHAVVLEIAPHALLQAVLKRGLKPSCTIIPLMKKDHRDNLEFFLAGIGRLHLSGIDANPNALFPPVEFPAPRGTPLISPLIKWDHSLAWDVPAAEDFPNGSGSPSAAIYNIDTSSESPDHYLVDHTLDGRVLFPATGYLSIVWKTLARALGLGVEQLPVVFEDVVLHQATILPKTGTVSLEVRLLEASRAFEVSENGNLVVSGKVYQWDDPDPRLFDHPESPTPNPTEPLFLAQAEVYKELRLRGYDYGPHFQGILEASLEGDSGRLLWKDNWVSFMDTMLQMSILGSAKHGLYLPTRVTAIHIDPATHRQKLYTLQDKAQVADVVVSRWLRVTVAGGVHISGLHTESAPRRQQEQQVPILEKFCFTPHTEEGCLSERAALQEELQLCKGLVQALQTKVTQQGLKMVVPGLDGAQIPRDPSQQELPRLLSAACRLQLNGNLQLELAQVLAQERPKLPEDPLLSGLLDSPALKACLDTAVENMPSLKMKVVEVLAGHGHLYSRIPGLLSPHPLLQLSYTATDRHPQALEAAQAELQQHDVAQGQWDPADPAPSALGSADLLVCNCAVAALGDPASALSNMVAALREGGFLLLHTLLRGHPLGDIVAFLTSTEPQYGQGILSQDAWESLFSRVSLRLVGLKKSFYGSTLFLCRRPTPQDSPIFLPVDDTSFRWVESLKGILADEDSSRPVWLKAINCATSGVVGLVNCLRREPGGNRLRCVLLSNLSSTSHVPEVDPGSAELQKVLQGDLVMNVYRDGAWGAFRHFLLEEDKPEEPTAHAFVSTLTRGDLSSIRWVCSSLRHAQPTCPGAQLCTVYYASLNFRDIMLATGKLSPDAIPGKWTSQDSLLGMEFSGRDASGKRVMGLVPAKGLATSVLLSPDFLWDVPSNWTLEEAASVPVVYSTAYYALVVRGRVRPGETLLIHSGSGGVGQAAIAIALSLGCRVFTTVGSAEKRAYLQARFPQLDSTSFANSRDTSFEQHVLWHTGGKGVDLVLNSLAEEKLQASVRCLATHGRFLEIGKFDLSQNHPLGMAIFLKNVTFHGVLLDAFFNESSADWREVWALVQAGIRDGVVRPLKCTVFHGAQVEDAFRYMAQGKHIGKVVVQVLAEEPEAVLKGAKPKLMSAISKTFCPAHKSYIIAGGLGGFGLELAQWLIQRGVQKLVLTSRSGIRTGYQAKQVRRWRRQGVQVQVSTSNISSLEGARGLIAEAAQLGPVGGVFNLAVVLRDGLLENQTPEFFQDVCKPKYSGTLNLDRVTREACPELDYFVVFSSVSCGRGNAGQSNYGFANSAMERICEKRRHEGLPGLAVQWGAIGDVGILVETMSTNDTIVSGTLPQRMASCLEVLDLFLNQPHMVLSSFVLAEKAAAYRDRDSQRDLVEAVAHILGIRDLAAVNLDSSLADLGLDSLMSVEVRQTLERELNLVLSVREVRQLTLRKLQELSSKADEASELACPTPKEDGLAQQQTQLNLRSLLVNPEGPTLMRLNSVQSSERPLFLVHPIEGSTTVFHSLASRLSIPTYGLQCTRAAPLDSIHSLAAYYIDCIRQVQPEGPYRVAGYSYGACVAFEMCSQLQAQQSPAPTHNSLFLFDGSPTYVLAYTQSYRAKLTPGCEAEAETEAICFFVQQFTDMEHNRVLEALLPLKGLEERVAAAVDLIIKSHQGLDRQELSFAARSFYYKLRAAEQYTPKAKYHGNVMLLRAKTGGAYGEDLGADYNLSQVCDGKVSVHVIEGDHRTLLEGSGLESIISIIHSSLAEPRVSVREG
The assay can be described thus: biochemical.
Details: not given
Regarding `COc1c(-c2ccc3c(c2)COC2(CCN(C(N)=O)CC2)O3)ccc2cccnc12` [Example 174, 6-(8-Methoxy-7-quinolyl)spiro[4H-1,3-benzodioxine-2,4′-piperidine]-1′-carboxamide], the IC50 (commonly the point on the concentration scale where inhibition reaches its midpoint) was 1 to 99 nM.
Still for that read-out and setting: the result for `CCOC(=O)N1CCC2(CC1)OCc1cc(-c3ccc4cccnc4c3OC)ccc1O2` [Example 176, Ethyl 6-(8-methoxy-7-quinolyl)spiro[4H-1,3-benzodioxine-2,4′-piperidine]-1′-carboxylate] reads 100 to 999 nM; that for `Cc1nccc2cc(-c3ccc4c(c3)COC3(CCN(C(=O)NOC(C)C)CC3)O4)ccc12` [Example 182, N-Isopropoxy-6-(1-methyl-6-isoquinolyl)spiro[4H-1,3-benzodioxine-2,4′-piperidine]-1′-carboxamide], 1 to 99 nM.
For `Cc1nccc2cc(-c3ccc4c(c3)COC3(CCN(C(N)=O)CC3)O4)ccc12` [Example 194, 6-(1-Methyl-6-isoquinolyl)spiro[4H-1,3-benzodioxine-2,4′-piperidine]-1′-carboxamide], the IC50 fell in the range of 100 to 999 nM.
Take `CONC(=O)N1CCC2(CC1)OCc1cc(-c3ccc4c(C)nccc4c3)ccc1O2` [Example 195, N-methoxy-6-(1-methyl-6-isoquinolyl)spiro[4H-1,3-benzodioxine-2,4′-piperidine]-1′-carboxamide]: the IC50 is 1 to 99 nM.
For `CCONC(=O)N1CCC2(CC1)OCc1cc(-c3ccc4c(C)nccc4c3)ccc1O2` [Example 196, N-Ethoxy-6-(1-methyl-6-isoquinolyl)spiro[4H-1,3-benzodioxine-2,4′-piperidine]-1′-carboxamide], the IC50 was 1 to 99 nM.
For the compound `CCNC(=O)N1CCC2(CC1)OCc1cc(-c3ccc4c(C)nccc4c3)ccc1O2` [Example 197, N-ethyl-6-(1-methyl-6-isoquinolyl)spiro[4H-1,3-benzodioxine-2,4′-piperidine]-1′-carboxamide], the IC50 lay within 1 to 99 nM.

The same assay, now with this note: 5 nM FASN, 150 μM NADPH, 10 μM acetyl-CoA, 25 μM malonyl-CoA, 90 minutes incubation; read-out: IC50 data for Compounds of Formula I, Activity.
Consider `Cc1c(-c2ccc3c(c2)CC2(CCN(C(=O)NO)CC2)O3)cnc2ccccc12` [Example 161, 5-(4-Methyl-3-quinolyl)spiro[3H-benzofuran-2,4′-piperidine]-1′-carbohydroxamic acid], for which the IC50 lay within 1000 to 10000 nM.
With `COc1c(-c2ccc3c(c2)CC2(CCN(C(N)=O)CC2)O3)ccc2cccnc12` [Example 162, 5-(8-Methoxy-7-quinolyl)spiro[3H-benzofuran-2,4′-piperidine]-1′-carboxamide], the IC50 was 1000 to 10000 nM.
With `CCNC(=O)N1CCC2(CC1)Cc1cc(-c3ccc4cccnc4c3OC)ccc1O2` [Example 163, N-Ethyl-5-(8-methoxy-7-quinolyl)spiro[3H-benzofuran-2,4′-piperidine]-1′-carboxamide], the IC50 fell in the range of 1000 to 10000 nM.
Regarding `Cc1c(-c2ccc3c(c2)CC2(CCN(C(N)=O)CC2)O3)ccc2ccnn12` [Example 164, 5-(7-Methylpyrazolo[1,5-a]pyridin-6-yl)spiro[3H-benzofuran-2,4′-piperidine]-1′-carboxamide], the IC50 was in the range of 1000 to 10000 nM.
`CCNC(=O)N1CCC2(CC1)Cc1cc(-c3ccc4ccnn4c3C)ccc1O2` [Example 165, N-Ethyl-5-(7-methylpyrazolo[1,5-a]pyridin-6-yl)spiro[3H-benzofuran-2,4′-piperidine]-1′-carboxamide]: the IC50 was 1000 to 10000 nM.
With `CONC(=O)N1CCC2(CC1)Cc1cc(-c3ccc4cccnc4c3OC)ccc1O2` [Example 166, N-Methoxy-5-(8-methoxy-7-quinolyl)spiro[3H-benzofuran-2,4′-piperidine]-1′-carboxamide], the IC50 fell in the range of 1000 to 10000 nM.
On the same count and under the same terms, the same measure for `CCONC(=O)N1CCC2(CC1)Cc1cc(-c3ccc4cccnc4c3OC)ccc1O2` [Example 167, N-Ethoxy-5-(8-methoxy-7-quinolyl)spiro[3H-benzofuran-2,4′-piperidine]-1′-carboxamide]: 1000 to 10000 nM.
`COc1c(-c2ccc3c(c2)CC2(CCN(C(=O)NOC4CCCCO4)CC2)O3)ccc2cccnc12` (stereo not shown) [Example 168, 5-(8-Methoxy-7-quinolyl)-N-tetrahydropyran-2-yloxy-spiro[3H-benzofuran-2,4′-piperidine]-1′-carboxamide]: the IC50 lay in the range of 1000 to 10000 nM.
Turning to `CCONC(=O)N1CCC2(CC1)Cc1cc(-c3ccc4ccnn4c3C)ccc1O2` [Example 169, N-Ethoxy-5-(7-methylpyrazolo[1,5-a]pyridin-6-yl)spiro[3H-benzofuran-2,4′-piperidine]-1′-carboxamide], the IC50 was in the range of 1000 to 10000 nM.
The same measure, in the same setting: the same measure for `CONC(=O)N1CCC2(CC1)Cc1cc(-c3ccc4ccnn4c3C)ccc1O2` [Example 170, N-Methoxy-5-(7-methylpyrazolo[1,5-a]pyridin-6-yl)spiro[3H-benzofuran-2,4′-piperidine]-1′-carboxamide]: 1000 to 10000 nM.
Turning to `Cc1c(-c2ccc3c(c2)CC2(CCN(C(=O)NOC4CCCCO4)CC2)O3)ccc2ccnn12` (stereo not shown) [Example 171, 5-(7-Methylpyrazolo[1,5-a]pyridin-6-yl)-N-tetrahydropyran-2-yloxy-spiro[3H-benzofuran-2,4′-piperidine]-1′-carboxamide], the IC50 lay in the range of 1000 to 10000 nM.
For `Cc1c(-c2ccc3c(c2)CCC2(CCN(C(N)=O)CC2)O3)ccc2ccc(=O)[nH]c12` [Example 172, 6-(8-Methyl-2-oxo-1H-quinolin-7-yl)spiro[chromane-2,4′-piperidine]-1′-carboxamide], the IC50 lay within 1000 to 10000 nM.
As to `COc1c(-c2ccc3c(c2)CC2(CCN(C(=O)NO)CC2)O3)ccc2cccnc12` [Example 173, 5-(8-Methoxy-7-quinolyl)spiro[3H-benzofuran-2,4′-piperidine]-1′-carbohydroxamic acid], the IC50 lay in the range of 1000 to 10000 nM.
On to `COc1c(-c2ccc3c(c2)CCC2(CCN(C(N)=O)CC2)O3)ccc2cccnc12` [Example 175, 6-(8-Methoxy-7-quinolyl)spiro[chromane-2,4′-piperidine]-1′-carboxamide], for which the IC50 lay within 1 to 99 nM.
`CC(C)CNC(=O)N1CCC2(CCc3cc(-c4ccc5nccn5c4Cl)ccc3O2)CC1` [Example 177, 6-(5-Chloroimidazo[1,2-a]pyridin-6-yl)-N-isobutyl-spiro[chromane-2,4′-piperidine]-1′-carboxamide]: the IC50 was 1 to 99 nM.
As for `Cc1nccc2cc(-c3ccc4c(c3)CCC3(CCN(C(=O)NCC(C)C)CC3)O4)ccc12` [Example 178, N-Isobutyl-6-(1-methyl-6-isoquinolyl)spiro[chromane-2,4′-piperidine]-1′-carboxamide], the IC50 lay in the range of 1 to 99 nM.
For the compound `CC(C)ONC(=O)N1CCC2(CCc3cc(-c4ccc5nccn5c4Cl)ccc3O2)CC1` [Example 179, 6-(5-Chloroimidazo[1,2-a]pyridin-6-yl)-N-isopropoxy-spiro[chromane-2,4′-piperidine]-1′-carboxamide], the IC50 was 1 to 99 nM.
For `Cc1nccc2cc(-c3ccc4c(c3)CCC3(CCN(C(=O)NOC(C)C)CC3)O4)ccc12` [Example 180, N-Isopropoxy-6-(1-methyl-6-isoquinolyl)spiro[chromane-2,4′-piperidine]-1′-carboxamide], the IC50 was in the range of 1 to 99 nM.
In the case of `CCONC(=O)N1CCC2(CCc3cc(-c4cnc5ccccc5c4C)ccc3O2)CC1` [Example 181, N-Ethoxy-6-(4-methyl-3-quinolyl)spiro[chromane-2,4′-piperidine]-1′-carboxamide], the IC50 fell in the range of 1 to 99 nM.
With `Cc1nccc2cc(-c3ccc4c(c3)CCC3(CCN(C(N)=O)CC3)O4)ccc12` [Example 183, 6-(1-Methyl-6-isoquinolyl)spiro[chromane-2,4′-piperidine]-1′-carboxamide], the IC50 is 100 to 999 nM.
As for `CONC(=O)N1CCC2(CCc3cc(-c4ccc5c(C)nccc5c4)ccc3O2)CC1` [Example 184, N-methoxy-6-(1-methyl-6-isoquinolyl)spiro[chromane-2,4′-piperidine]-1′-carboxamide], the IC50 lay within 1 to 99 nM.
Same read-out and setting: the same measure for `CCONC(=O)N1CCC2(CCc3cc(-c4ccc5c(C)nccc5c4)ccc3O2)CC1` [Example 185, N-ethoxy-6-(1-methyl-6-isoquinolyl)spiro[chromane-2,4′-piperidine]-1′-carboxamide]: 1 to 99 nM.
In the case of `CCCONC(=O)N1CCC2(CCc3cc(-c4ccc5c(C)nccc5c4)ccc3O2)CC1` [Example 186, 6-(1-Methyl-6-isoquinolyl)-N-propoxy-spiro[chromane-2,4′-piperidine]-1′-carboxamide], the IC50 fell in the range of 1 to 99 nM.
Turning to `CCNC(=O)N1CCC2(CCc3cc(-c4ccc5c(C)nccc5c4)ccc3O2)CC1` [Example 187, N-Ethyl-6-(1-methyl-6-isoquinolyl)spiro[chromane-2,4′-piperidine]-1′-carboxamide], the IC50 was 1 to 99 nM.
For the compound `CCCNC(=O)N1CCC2(CCc3cc(-c4ccc5c(C)nccc5c4)ccc3O2)CC1` [Example 188, 6-(1-methyl-6-isoquinolyl)-N-propyl-spiro[chromane-2,4′-piperidine]-1′-carboxamide], the IC50 was 1 to 99 nM.
`Cc1nccc2cc(-c3ccc4c(c3)CCC3(CCN(C(=O)NO)CC3)O4)ccc12` [Example 189, 6-(1-Methyl-6-isoquinolyl)spiro[chromane-2,4′-piperidine]-1′-carbohydroxamic acid]: the IC50 was in the range of 1000 to 10000 nM.
For `Cc1c(-c2ccc3c(c2)CCC2(CCN(C(N)=O)CC2)O3)cnc2ccccc12` [Example 190, 6-(4-methyl-3-quinolyl)spiro[chromane-2,4′-piperidine]-1′-carboxamide], the IC50 lay within 1 to 99 nM.
Regarding `Cc1c(-c2ccc3c(c2)CCC2(CCN(C(=O)NO)CC2)O3)cnc2ccccc12` [Example 191, 6-(4-Methyl-3-quinolyl)spiro[chromane-2,4′-piperidine]-1′-carbohydroxamic acid], the IC50 was 100 to 999 nM.
Regarding `CONC(=O)N1CCC2(CCc3cc(-c4cnc5ccccc5c4C)ccc3O2)CC1` [Example 192, N-Methoxy-6-(4-methyl-3-quinolyl)spiro[chromane-2,4′-piperidine]-1′-carboxamide], the IC50 is 1 to 99 nM.
`Cc1c(-c2ccc3c(c2)CCC2(CCN(C(=O)NOC(C)C)CC2)O3)cnc2ccccc12` [Example 193, N-isopropoxy-6-(4-methyl-3-quinolyl)spiro[chromane-2,4′-piperidine]-1′-carboxamide]: the IC50 was 1 to 99 nM.

The record behind these values is US12448392B2, “Spiropiperidine derivatives” (89BIO LTD, priority 2016, dated 2025).
